Data taken from patent publication US6509318B1, “TGF-B inhibitors and methods” (The Regents of the University of California, priority 2000, dated 2003).
Non-standard residues stand in square brackets, D forms with d. No end group written: not given here.

Tests used:
[1] = tested on: mink lung epithelium MV-1-Lu cells; test: DNA synthesis (3H-thymidine incorporation) in MV-1-Lu cells, additions alone; assay type: cell-based; settings: for 3H-Thymidine Incorporation 10^3 d.p.m. ± S.D.: 24 h; for (+/−) % change over control with TGF β-1 / (+/−) % change over control when CITA is present: vs control (no additions)
Description: (§1) Inhibition of TGF β-1 Activity by CITAs: We have used a standardized in vitro assay for TGF β-1 as a test for the biological activity of CITAs. Our test is based on inhibiting the effect of TGF β-1 on a test cell proliferation system. In this assay, mink lung epithelium MV-1-Lu cells are exposed to TGF β-1. […] The decrease in DNA synthesis can be monitored by measuring the incorporation of labeled precursors in DNA. The incorporation of ^3H-thymidine in DNA in MV-1-Lu cells are used as a measure of cell proliferation. […] These concentrations of TGF β-1 were based on the amounts of TGF β-1 found in normal serum and in serum from patients with peritonitis, an inflammatory disease. The normal amount of TGF β-1 in human serum is approximately 2 nM (39 pG/ml). In patients with peritonitis, the amount increases to nearly 10 nM (169-216 pG/ml). The incorporation of ^3H-thymidine in the absence of TGF β-1 served as the control. To test the anti-TGF β-1 activity of CITAs, the cells were exposed to 1 nM, 10 nM, and 100 nM CITA-I, CITA-II, and CITA-III in the absence and in the presence of 5.0 nM and 10.0 nM TGF β-1.
(§2) Details of Experimental Procedures: 10^4 MV-1-Lu were plated in each well of a 12 well plate in 2.0 ml minimum essential medium containing non-essential amino acids (MEM) and 10% fetal bovine serum. After 24 hours, the medium was placed with serum free MEM and the cells were further cultured for two hours before the medium was placed with serum free MEM containing the test additives. After exposure to the test medium for 24 hours, the cells were pulse labeled for two hours with 0.5 μCi (methyl-^3H)-thymidine, (specific activity 60 Ci/mmol). After pulse labeling, the radioactive medium was removed, and the cells were washed 1× with 10% trichloracetic acid (TCA), 2× with 5% TCA, then 2× with phosphate buffered saline containing 50 μg/ml non-radioactive thymidine. The wash solutions were monitored to establish that no further unbound radioactive thymidine remained. The washed cell layers were dissolved in 1 ml 0.1 N NaOH containing 1% sodium dodecyl sulfate. The radioactivity in the solution was measured in a scintillation counter and expressed as disintegrations per minute (d.p.m.). Each test was carried out in quadruplicate, and the data presented as mean±standard deviation.

TGF β-1 = test: Inhibition of TGF β-1 activity by CITAs: reversal of TGF β-1 inhibition of DNA synthesis in MV-1-Lu cells; assay type: cell-based; settings: for 3H-Thymidine Incorporation 10^3 d.p.m. ± S.D.: 24 h; for (+/−) % change over control when CITA is present: vs control (no additions)
Description: as §1, §2

For “TGF β-1: transforming growth factor β-1, growth factor protein used to inhibit DNA synthesis of MV-1-Lu cells”, the “3H-Thymidine Incorporation 10^3 d.p.m. ± S.D.” value ([1]; TGF β-1 5 nM alone, MV-1-Lu cells) was 16.43 ± 2.95 10^3 d.p.m, the “(+/−) % change over control with TGF β-1” value ([1]; TGF β-1 5 nM alone) was −72% and the “decrease of DNA synthesis” value ([1]; TGF β-1 5.0 nM, MV-1-Lu cells) was “approximately 70%”. For the same substance, the “3H-Thymidine Incorporation 10^3 d.p.m. ± S.D.” value ([1]; TGF β-1 10 nM alone, MV-1-Lu cells) was 1.91 ± 0.08 10^3 d.p.m, the “(+/−) % change over control with TGF β-1” value ([1]; TGF β-1 10 nM alone) was −97% and the “inhibition of DNA synthesis” value ([1]; TGF β-1 10 nM, MV-1-Lu cells) was about 97%.
“Leu-Ile-Ala-Pro-D-Glu-Ala (LIAP[dE]A) [CITA-I]” was tested, and the “3H-Thymidine Incorporation 10^3 d.p.m. ± S.D.” value ([1]; CITA 1 nM alone, no TGF β-1, MV-1-Lu cells) was 46.46 ± 2.48 10^3 d.p.m, the “(+/−) % change over control when CITA is present” value ([1]; CITA 1 nM alone, no TGF β-1) was −19% and the “3H-Thymidine Incorporation 10^3 d.p.m. ± S.D.” value ([1]; CITA 10 nM alone, no TGF β-1, MV-1-Lu cells) was 44.93 ± 3.34 10^3 d.p.m. For the same substance, the “(+/−) % change over control when CITA is present” value ([1]; CITA 10 nM alone, no TGF β-1) was −21%, the “3H-Thymidine Incorporation 10^3 d.p.m. ± S.D.” value ([1]; CITA 100 nM alone, no TGF β-1, MV-1-Lu cells) was 45.10 ± 1.27 10^3 d.p.m and the “(+/−) % change over control when CITA is present” value ([1]; CITA 100 nM alone, no TGF β-1) was −22%. The “decrease of DNA synthesis against the control” value ([1]; CITA alone, all concentrations examined (1, 10, 100 nM)) was “approximately 20%”, the “DNA synthesis restored, relative to the level seen with TGF β-1” value (TGF β-1; MV-1-Lu cells exposed to 5 nM TGF β-1, all concentrations of CITAs) was 2 × and the “reversal of the inhibition of DNA synthesis caused by TGF β-1” value (TGF β-1; MV-1-Lu cells, TGF β-1 5 nM and 10 nM) was “markedly reversed the inhibition of DNA synthesis”. For the same substance, the “% Increase over TGF β-1. TGF β-1 + CITA/TGF β-1 × 100” value (TGF β-1; TGF β-1 5 nM + CITA 1 nM, relative to TGF β-1 5 nM alone) was 250%, the “3H-Thymidine Incorporation 10^3 d.p.m. ± S.D.” value (TGF β-1; TGF β-1 5 nM + CITA 1 nM, MV-1-Lu cells) was 41.05 ± 2.04 10^3 d.p.m and the “(+/−) % change over control when CITA is present” value (TGF β-1; TGF β-1 5 nM + CITA 1 nM) was −29%. For the same substance, the “% Increase over TGF β-1. TGF β-1 + CITA/TGF β-1 × 100” value (TGF β-1; TGF β-1 5 nM + CITA 10 nM, relative to TGF β-1 5 nM alone) was 194%, the “3H-Thymidine Incorporation 10^3 d.p.m. ± S.D.” value (TGF β-1; TGF β-1 5 nM + CITA 10 nM, MV-1-Lu cells) was 31.88 ± 2.32 10^3 d.p.m and the “(+/−) % change over control when CITA is present” value (TGF β-1; TGF β-1 5 nM + CITA 10 nM) was −45%. For the same substance, the “% Increase over TGF β-1. TGF β-1 + CITA/TGF β-1 × 100” value (TGF β-1; TGF β-1 5 nM + CITA 100 nM, relative to TGF β-1 5 nM alone) was 181%, the “3H-Thymidine Incorporation 10^3 d.p.m. ± S.D.” value (TGF β-1; TGF β-1 5 nM + CITA 100 nM, MV-1-Lu cells) was 29.70 ± 2.79 10^3 d.p.m and the “(+/−) % change over control when CITA is present” value (TGF β-1; TGF β-1 5 nM + CITA 100 nM) was −49%. For the same substance, the “% Increase over TGF β-1. TGF β-1 + CITA/TGF β-1 × 100” value (TGF β-1; TGF β-1 10 nM + CITA 1 nM, relative to TGF β-1 10 nM alone) was 1113%, the “3H-Thymidine Incorporation 10^3 d.p.m. ± S.D.” value (TGF β-1; TGF β-1 10 nM + CITA 1 nM, MV-1-Lu cells) was 21.26 ± 1.30 10^3 d.p.m and the “(+/−) % change over control when CITA is present” value (TGF β-1; TGF β-1 10 nM + CITA 1 nM) was −63%. For the same substance, the “% Increase over TGF β-1. TGF β-1 + CITA/TGF β-1 × 100” value (TGF β-1; TGF β-1 10 nM + CITA 10 nM, relative to TGF β-1 10 nM alone) was 1373%, the “3H-Thymidine Incorporation 10^3 d.p.m. ± S.D.” value (TGF β-1; TGF β-1 10 nM + CITA 10 nM, MV-1-Lu cells) was 26.23 ± 2.73 10^3 d.p.m and the “(+/−) % change over control when CITA is present” value (TGF β-1; TGF β-1 10 nM + CITA 10 nM) was −55%. The “% Increase over TGF β-1. TGF β-1 + CITA/TGF β-1 × 100” value (TGF β-1; TGF β-1 10 nM + CITA 100 nM, relative to TGF β-1 10 nM alone) was 906%, the “3H-Thymidine Incorporation 10^3 d.p.m. ± S.D.” value (TGF β-1; TGF β-1 10 nM + CITA 100 nM, MV-1-Lu cells) was 17.30 ± 2.19 10^3 d.p.m and the “(+/−) % change over control when CITA is present” value (TGF β-1; TGF β-1 10 nM + CITA 100 nM) was −70%. The “increase in DNA synthesis in the inhibited cells” value (TGF β-1; cells severely inhibited by 10 nM TGF β-1, all concentrations of CITA-I) was “over 10 fold”.
